# Measured values published in patent US11851446B2, “Probes for imaging Huntingtin protein” (CHDI Foundation, Inc., priority 2014, dated 2023).
# pIC50: −log10 of the molar value.
# Tests used:
# [1] = test system: recombinant tau and amyloid β1-42 (Aβ1-42) aggregates; conditions: higher affinity for the tau aggregates than Aβ1-42 aggregates; cited from earlier work
# [2] = test system: NFT in sections of AD brain tissue; conditions: in vitro autoradiography and fluorescent staining; cited from earlier work
# Q46 protein aggregates = target: T1, Q46 protein aggregates (Homo sapiens, UniProt P42858, INS38QQQQQQQQQQQQQQQQQQQQQQQQQ); assay: Q46 Radioligand Binding Assay (RBA); conditions: displacement of 10 nM [3H3]MK-3328 from 5 μM aggregated Q46 protein, 60 minutes at 37° C.
# T1 construct: fused on or other part: GST at the N-terminus, cut off by thrombin before the test to start aggregation
# T1 sequence (P42858 with tags, fused parts or gaps with the stated changes): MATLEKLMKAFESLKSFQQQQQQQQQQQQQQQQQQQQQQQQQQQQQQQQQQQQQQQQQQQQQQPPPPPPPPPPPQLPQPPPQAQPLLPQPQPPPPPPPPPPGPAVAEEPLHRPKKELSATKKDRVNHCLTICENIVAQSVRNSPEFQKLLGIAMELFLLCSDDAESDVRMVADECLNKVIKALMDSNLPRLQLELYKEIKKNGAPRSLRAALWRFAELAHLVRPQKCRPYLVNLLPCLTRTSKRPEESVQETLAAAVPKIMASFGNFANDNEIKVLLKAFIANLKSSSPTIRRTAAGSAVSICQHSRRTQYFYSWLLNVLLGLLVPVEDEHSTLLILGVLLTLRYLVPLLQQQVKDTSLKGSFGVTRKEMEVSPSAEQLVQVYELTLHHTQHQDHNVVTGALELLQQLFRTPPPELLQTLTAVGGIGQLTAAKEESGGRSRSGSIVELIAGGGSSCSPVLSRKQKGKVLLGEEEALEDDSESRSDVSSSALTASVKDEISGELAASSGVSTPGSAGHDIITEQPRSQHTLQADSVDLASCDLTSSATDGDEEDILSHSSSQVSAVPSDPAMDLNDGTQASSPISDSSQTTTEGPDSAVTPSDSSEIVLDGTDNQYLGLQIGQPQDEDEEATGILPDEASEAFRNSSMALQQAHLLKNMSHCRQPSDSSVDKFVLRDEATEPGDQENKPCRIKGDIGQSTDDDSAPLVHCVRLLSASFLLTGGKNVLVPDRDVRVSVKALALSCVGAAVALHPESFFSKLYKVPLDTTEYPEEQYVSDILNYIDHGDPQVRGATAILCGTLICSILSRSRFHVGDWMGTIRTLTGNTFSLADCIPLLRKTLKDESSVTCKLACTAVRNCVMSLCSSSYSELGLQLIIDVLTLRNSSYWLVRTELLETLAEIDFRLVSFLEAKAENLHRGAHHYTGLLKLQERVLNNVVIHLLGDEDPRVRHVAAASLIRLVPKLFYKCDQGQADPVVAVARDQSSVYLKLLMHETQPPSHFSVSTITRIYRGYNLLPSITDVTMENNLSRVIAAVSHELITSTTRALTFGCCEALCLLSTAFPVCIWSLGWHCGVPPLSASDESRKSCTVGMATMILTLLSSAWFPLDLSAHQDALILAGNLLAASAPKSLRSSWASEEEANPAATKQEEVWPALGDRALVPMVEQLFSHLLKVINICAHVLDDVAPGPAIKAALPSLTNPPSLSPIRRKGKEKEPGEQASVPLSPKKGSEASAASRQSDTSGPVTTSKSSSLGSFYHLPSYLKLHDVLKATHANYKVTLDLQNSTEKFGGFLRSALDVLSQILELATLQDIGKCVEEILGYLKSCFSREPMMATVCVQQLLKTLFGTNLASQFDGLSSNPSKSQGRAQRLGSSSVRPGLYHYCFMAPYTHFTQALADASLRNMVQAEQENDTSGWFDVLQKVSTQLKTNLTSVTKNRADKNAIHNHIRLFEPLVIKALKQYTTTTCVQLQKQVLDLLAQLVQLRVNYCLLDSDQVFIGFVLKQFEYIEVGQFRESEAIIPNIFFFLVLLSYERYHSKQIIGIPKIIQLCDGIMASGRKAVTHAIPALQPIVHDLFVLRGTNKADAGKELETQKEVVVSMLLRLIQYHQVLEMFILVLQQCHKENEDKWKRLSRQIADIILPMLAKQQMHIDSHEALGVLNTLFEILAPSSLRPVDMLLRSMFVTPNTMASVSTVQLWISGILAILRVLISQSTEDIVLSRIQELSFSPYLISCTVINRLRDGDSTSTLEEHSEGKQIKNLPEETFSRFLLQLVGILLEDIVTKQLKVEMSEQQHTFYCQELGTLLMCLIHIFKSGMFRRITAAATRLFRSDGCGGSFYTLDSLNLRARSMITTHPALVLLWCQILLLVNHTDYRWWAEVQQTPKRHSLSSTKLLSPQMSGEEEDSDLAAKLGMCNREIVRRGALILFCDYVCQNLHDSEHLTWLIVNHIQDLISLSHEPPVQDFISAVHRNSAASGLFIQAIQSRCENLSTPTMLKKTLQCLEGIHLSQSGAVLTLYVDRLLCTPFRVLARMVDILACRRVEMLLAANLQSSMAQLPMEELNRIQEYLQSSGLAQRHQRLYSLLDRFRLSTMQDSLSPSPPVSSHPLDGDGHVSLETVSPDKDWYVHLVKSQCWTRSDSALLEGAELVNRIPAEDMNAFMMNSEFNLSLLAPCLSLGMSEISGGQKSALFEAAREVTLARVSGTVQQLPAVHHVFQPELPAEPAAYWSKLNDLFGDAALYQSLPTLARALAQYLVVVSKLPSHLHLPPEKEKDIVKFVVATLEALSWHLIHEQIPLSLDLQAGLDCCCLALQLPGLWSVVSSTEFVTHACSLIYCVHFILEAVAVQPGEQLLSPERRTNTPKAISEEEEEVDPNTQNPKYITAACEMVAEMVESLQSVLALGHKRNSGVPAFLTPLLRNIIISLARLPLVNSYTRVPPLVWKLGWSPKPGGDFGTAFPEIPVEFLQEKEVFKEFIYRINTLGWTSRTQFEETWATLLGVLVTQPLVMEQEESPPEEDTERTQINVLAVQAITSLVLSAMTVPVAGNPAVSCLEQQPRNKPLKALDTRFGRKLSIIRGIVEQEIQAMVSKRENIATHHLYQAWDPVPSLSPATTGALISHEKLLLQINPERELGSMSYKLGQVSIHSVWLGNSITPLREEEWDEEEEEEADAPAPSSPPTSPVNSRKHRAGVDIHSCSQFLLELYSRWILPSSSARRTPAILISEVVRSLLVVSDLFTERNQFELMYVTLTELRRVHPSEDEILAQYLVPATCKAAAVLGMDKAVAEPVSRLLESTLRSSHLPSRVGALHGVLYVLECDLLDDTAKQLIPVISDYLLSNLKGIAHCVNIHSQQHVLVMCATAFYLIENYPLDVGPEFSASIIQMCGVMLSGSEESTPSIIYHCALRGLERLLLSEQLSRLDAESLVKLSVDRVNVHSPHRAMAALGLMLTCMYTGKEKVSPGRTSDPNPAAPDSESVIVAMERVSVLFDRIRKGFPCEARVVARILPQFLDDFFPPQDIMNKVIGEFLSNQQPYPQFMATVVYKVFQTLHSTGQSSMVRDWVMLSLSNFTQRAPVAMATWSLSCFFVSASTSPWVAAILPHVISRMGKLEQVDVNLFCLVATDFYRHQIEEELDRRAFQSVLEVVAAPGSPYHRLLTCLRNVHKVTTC
# Description: Q46 Radioligand Binding Assay
# For radioligand binding assays (RBA) GST-Q46 protein was generated based on a previous publication (Scherzinger et al. Cell, Vol. 90, 549-558, Aug. 8, 1997). For experiments 33 μM GST-Q46 was incubated with 150 μg/mL thrombin in assay buffer (150 mM NaCl, 50 mM Tris pH 8.0) and 2 mM CaCl2 for 16 hours at 37° C. Aggregated Q46 was pelleted by centrifugation for 5 minutes at 13,000 rpm in a bench top centrifuge and re-dissolved in the same volume of assay buffer. Test compounds were prepared by titration in DMSO at 11 concentrations from 33 μM to 1 nM. For the RBA, Q46 protein aggregates and test compounds were pre-incubated in assay buffer for 20 minutes at room temperature, in 140 μL/well in a 96-well plate (pp, round bottom). Then, ligand was added in 10 μL/well and incubated for 60 minutes at 37° C. Final assay concentrations were […] test compound, 5 μM Q46 protein (equivalent monomer concentration) and 10 nM ligand [^3H3]MK-3328 (Harrision et al., ACS Med. Chem. Lett., 2 (2011), pp 498-502). Samples were transferred onto GF/B filter plates and washed 2× with 200 μL PBS using a Filtermate Harvester. After drying filter plates for 1 hour at 37° C., the back of the plates was sealed with foil and 30 μl/well scintillation fluid (Packard MicroScint 40) was added, incubated for […] 15 minutes in the dark and counted in a TopCount reader. For analysis, replicate data from independent assay plates were normalized towards 0% and 100% inhibition using control wells of vehicle (0% inhibition) and 3 μM unlabelled MK-3328 (100% inhibition). IC50 values were determined with a sigmoidal inhibition model with four variables (top, bottom, slope, IC50) in a global fit using the normalized replicate data.
pIC50 (Q46 protein aggregates),SMILES,ratio of Kd values (tau aggregates vs Aβ1-42 aggregates) [1],binding to NFT in sections of AD brain tissue [2]
–,"CN(C)c1ccc(/C=C/c2nc3ccc(I)cc3[nH]2)cc1 [SBIM-3, 4-[(E)-2-(6-iodo-1H-benzimidazol-2-yl)ethenyl]-N,N-dimethylaniline]",2.73,bound NFT
6.30 to 7.00,"COc1ccc2oc(-c3nc4cc(C#N)ccn4c3CN(C)C)cc2c1 [3-[(dimethylamino)methyl]-2-(5-methoxy-1-benzofuran-2-yl)imidazo[1,2-a]pyridine-7-carbonitrile]",–,–
> 7.00,"CNc1c(-c2nc3ccc(OC)cc3s2)nc2cc(C#N)ccn12 [2-(6-methoxy-1,3-benzothiazol-2-yl)-3-(methylamino)imidazo[1,2-a]pyridine-7-carbonitrile]",–,–
6.30 to 7.00,"COCCNc1c(-c2cc3cc(OC)ccc3o2)nc2ccccn12 [2-(5-methoxy-1-benzofuran-2-yl)-N-(2-methoxyethyl)imidazo[1,2-a]pyridin-3-amine]",–,–
6.30 to 7.00,"CNc1c(-c2cc3cc(O)ccc3o2)nc2ccc(F)cn12 [2-[6-fluoro-3-(methylamino)imidazo[1,2-a]pyridin-2-yl]-1-benzofuran-5-ol]",–,–
6.30 to 7.00,"C#CCOc1ccc(-c2nc3cc(C#N)ccn3c2NC)cc1 [3-(methylamino)-2-[4-(prop-2-yn-1-yloxy)phenyl]imidazo[1,2-a]pyridine-7-carbonitrile]",–,–
6.30 to 7.00,"CNc1c(-c2cc3cc(OC)ccc3o2)nc2cc(CN)ccn12 [7-(aminomethyl)-2-(5-methoxy-1-benzofuran-2-yl)-N-methylimidazo[1,2-a]pyridin-3-amine]",–,–
> 7.00,"CNc1c(-c2cc3cc(O)ccc3o2)nc2cc(F)ccn12 [2-[7-fluoro-3-(methylamino)imidazo[1,2-a]pyridin-2-yl]-1-benzofuran-5-ol]",–,–
> 7.00,"COCCNc1c(-c2cc3cc(OC)ccc3o2)nc2cc(C#N)ccn12 [2-(5-methoxy-1-benzofuran-2-yl)-3-[(2-methoxyethyl)amino]imidazo[1,2-a]pyridine-7-carbonitrile]",–,–
6.30 to 7.00,"CNc1c(-c2ccc(Br)o2)nc2cc(C#N)ccn12 [2-(5-bromofuran-2-yl)-3-(methylamino)imidazo[1,2-a]pyridine-7-carbonitrile]",–,–
6.30 to 7.00,"CNc1c(-c2ccc3occc3c2)nc2cc(C#N)ccn12 [2-(1-benzofuran-5-yl)-3-(methylamino)imidazo[1,2-a]pyridine-7-carbonitrile]",–,–
> 7.00,"CNc1c(-c2cc3cc(OC)ccc3o2)nc2ccc(C#N)cn12 [2-(5-methoxy-1-benzofuran-2-yl)-3-(methylamino)imidazo[1,2-a]pyridine-6-carbonitrile]",–,–
6.30 to 7.00,"COc1ccc2oc(-c3nc4cc(C#N)ccn4c3NCCN(C)C)cc2c1 [3-{[2-(dimethylamino)ethyl]amino}-2-(5-methoxy-1-benzofuran-2-yl)imidazo[1,2-a]pyridine-7-carbonitrile]",–,–
> 7.00,"CNc1c(-c2cn3c(n2)sc2ccc(OC)cc23)nc2cc(C#N)ccn12 [2-{11-methoxy-7-thia-2,5-diazatricyclo[6.4.0.0^2,6]dodeca-1(12),3,5,8,10-pentaen-4-yl}-3-(methylamino)imidazo[1,2-a]pyridine-7-carbonitrile]",–,–
> 7.00,"CNc1c(-c2nc3ccc(OC)cc3n2C)nc2cc(C#N)ccn12 [2-(6-methoxy-1-methyl-1H-1,3-benzodiazol-2-yl)-3-(methylamino)imidazo[1,2-a]pyridine-7-carbonitrile]",–,–
6.30 to 7.00,"CNc1c(-c2ccc(COCc3cccnc3)cc2)nc2cc(C#N)ccn12 [3-(methylamino)-2-{4-[(pyridin-3-ylmethoxy)methyl]phenyl}imidazo[1,2-a]pyridine-7-carbonitrile]",–,–
> 7.00,"CNc1c(-c2cccc(-c3cnccn3)c2)nc2cc(C#N)ccn12 [3-(methylamino)-2-[3-(pyrazin-2-yl)phenyl]imidazo[1,2-a]pyridine-7-carbonitrile]",–,–
> 7.00,"CNc1c(-c2cc3cc(OC)ccc3o2)nc2ccc(F)cn12 [6-fluoro-2-(5-methoxy-1-benzofuran-2-yl)-N-methylimidazo[1,2-a]pyridin-3-amine]",–,–
6.30 to 7.00,"CNc1c(-c2cc3cc(OCCN(C)C)ccc3o2)nc2cc(C#N)ccn12 [2-{5-[2-(dimethylamino)ethoxy]-1-benzofuran-2-yl}-3-(methylamino)imidazo[1,2-a]pyridine-7-carbonitrile]",–,–
6.30 to 7.00,"OCCNc1c(-c2cc3cc(O)ccc3o2)nc2ccccn12 [2-{3-[(2-hydroxyethyl)amino]imidazo[1,2-a]pyridin-2-yl}-1-benzofuran-5-ol]",–,–
